# Measured values as given in patent publication US20260027116A1, “Methods of Treating Chronic Graft-Versus-Host Disease Following Allogeneic Hematopoietic Stem Cell Transplantation” (Kadmon Corporation, LLC, priority 2022, published 2026).
# What was measured:
# [1] = pharmacokinetics in healthy subjects (bioavailability, food effect, distribution, excretion); assay type: in vivo, human
# lung function = experiment: Example 1: percent predicted HGB corrected DLco change from baseline; assay type: in vivo, human; settings: mean (SD)
# From the text: Change From Baseline in Percent Predicted Hemoglobin (HGB) Corrected Diffusing Capacity of Lung for Carbon Monoxide (DLco) at Each Specified Time Points. DLco is a measurement of the ability of the lungs to transfer gases from the air to the blood. Change from baseline in diffusing capacity of the lung for carbon monoxide (percent predicted hemoglobin level corrected) was reported for this measure. Baseline value was defined as valid and last non-missing value obtained within 28 days prior to participant receiving first study medication. EOT visit was performed within 3 days after the participant's last dose of study drug. […] Analysis was performed on mITT population. Here, ‘number analyzed’=participants with available data for each specified category. Here, ‘O’ in the number analyzed field signifies that none of the participants were available for the analysis at the specified time points.
smiles,measurement,setting,value
"CC(C)NC(=O)COc1cccc(-c2nc(Nc3ccc4[nH]ncc4c3)c3ccccc3n2)c1 [Belumosudil, 2-{3-[4-(1H-indazol-5-ylamino)-2-quinazolinyl]phenoxy}-N-(propan-2-yl) acetamide]","food effect, Cmax increase",[1]; high-fat high-calorie meal vs fasted,2.2 times
same,radioactivity recovered in feces,[1]; single oral radiolabeled dose,85%
same,radioactivity recovered in urine,[1]; single oral radiolabeled dose,less than 5%
same,recovered in feces as unchanged,[1]; single oral radiolabeled dose,30%
same,Change From Baseline in Percent Predicted Hemoglobin (HGB) Corrected Diffusing Capacity of Lung for Carbon Monoxide (DLco),"lung function; Cohort 1: 200 mg QD, Cycle 3, Day 1",4.545 (22.991) Percent Predicted HGB Corrected DLco
same,Change From Baseline in Percent Predicted Hemoglobin (HGB) Corrected Diffusing Capacity of Lung for Carbon Monoxide (DLco),"lung function; Cohort 1: 200 mg QD, Cycle 5, Day 1",4.635 (23.989) Percent Predicted HGB Corrected DLco
same,Change From Baseline in Percent Predicted Hemoglobin (HGB) Corrected Diffusing Capacity of Lung for Carbon Monoxide (DLco),"lung function; Cohort 1: 200 mg QD, Cycle 7, Day 1",1.521 (19.836) Percent Predicted HGB Corrected DLco
same,Change From Baseline in Percent Predicted Hemoglobin (HGB) Corrected Diffusing Capacity of Lung for Carbon Monoxide (DLco),"lung function; Cohort 1: 200 mg QD, Cycle 9, Day 1",−4.514 (7.401) Percent Predicted HGB Corrected DLco
same,Change From Baseline in Percent Predicted Hemoglobin (HGB) Corrected Diffusing Capacity of Lung for Carbon Monoxide (DLco),"lung function; Cohort 1: 200 mg QD, Cycle 11, Day 1",−0.625 (7.262) Percent Predicted HGB Corrected DLco
same,Change From Baseline in Percent Predicted Hemoglobin (HGB) Corrected Diffusing Capacity of Lung for Carbon Monoxide (DLco),"lung function; Cohort 1: 200 mg QD, Cycle 12, Day 1",0.531 (—) Percent Predicted HGB Corrected DLco
same,Change From Baseline in Percent Predicted Hemoglobin (HGB) Corrected Diffusing Capacity of Lung for Carbon Monoxide (DLco),"lung function; Cohort 1: 200 mg QD, Cycle 13, Day 1",−5.548 (12.175) Percent Predicted HGB Corrected DLco
same,Change From Baseline in Percent Predicted Hemoglobin (HGB) Corrected Diffusing Capacity of Lung for Carbon Monoxide (DLco),"lung function; Cohort 1: 200 mg QD, Cycle 14, Day 1",12.916 (—) Percent Predicted HGB Corrected DLco
same,Change From Baseline in Percent Predicted Hemoglobin (HGB) Corrected Diffusing Capacity of Lung for Carbon Monoxide (DLco),"lung function; Cohort 1: 200 mg QD, Cycle 15, Day 1",0.228 (15.731) Percent Predicted HGB Corrected DLco
same,Change From Baseline in Percent Predicted Hemoglobin (HGB) Corrected Diffusing Capacity of Lung for Carbon Monoxide (DLco),"lung function; Cohort 1: 200 mg QD, Cycle 16, Day 1",48.465 (—) Percent Predicted HGB Corrected DLco
same,Change From Baseline in Percent Predicted Hemoglobin (HGB) Corrected Diffusing Capacity of Lung for Carbon Monoxide (DLco),"lung function; Cohort 1: 200 mg QD, Cycle 17, Day 1",−1.018 (9.226) Percent Predicted HGB Corrected DLco
same,Change From Baseline in Percent Predicted Hemoglobin (HGB) Corrected Diffusing Capacity of Lung for Carbon Monoxide (DLco),"lung function; Cohort 1: 200 mg QD, Cycle 19, Day 1",−2.293 (5.763) Percent Predicted HGB Corrected DLco
same,Change From Baseline in Percent Predicted Hemoglobin (HGB) Corrected Diffusing Capacity of Lung for Carbon Monoxide (DLco),"lung function; Cohort 1: 200 mg QD, Cycle 21, Day 1",−2.778 (8.187) Percent Predicted HGB Corrected DLco
same,Change From Baseline in Percent Predicted Hemoglobin (HGB) Corrected Diffusing Capacity of Lung for Carbon Monoxide (DLco),"lung function; Cohort 1: 200 mg QD, Cycle 23, Day 1",0.354 (1.844) Percent Predicted HGB Corrected DLco
same,Change From Baseline in Percent Predicted Hemoglobin (HGB) Corrected Diffusing Capacity of Lung for Carbon Monoxide (DLco),"lung function; Cohort 1: 200 mg QD, Cycle 24, Day 1",6.945 (—) Percent Predicted HGB Corrected DLco
same,Change From Baseline in Percent Predicted Hemoglobin (HGB) Corrected Diffusing Capacity of Lung for Carbon Monoxide (DLco),"lung function; Cohort 1: 200 mg QD, Cycle 25, Day 1",−4.461 (19.865) Percent Predicted HGB Corrected DLco
same,Change From Baseline in Percent Predicted Hemoglobin (HGB) Corrected Diffusing Capacity of Lung for Carbon Monoxide (DLco),"lung function; Cohort 1: 200 mg QD, Cycle 26, Day 1",4.715 (—) Percent Predicted HGB Corrected DLco
same,Change From Baseline in Percent Predicted Hemoglobin (HGB) Corrected Diffusing Capacity of Lung for Carbon Monoxide (DLco),"lung function; Cohort 1: 200 mg QD, Cycle 27, Day 1",−8.047 (24.788) Percent Predicted HGB Corrected DLco
same,Change From Baseline in Percent Predicted Hemoglobin (HGB) Corrected Diffusing Capacity of Lung for Carbon Monoxide (DLco),"lung function; Cohort 1: 200 mg QD, Cycle 29, Day 1",−6.701 (1.671) Percent Predicted HGB Corrected DLco
same,Change From Baseline in Percent Predicted Hemoglobin (HGB) Corrected Diffusing Capacity of Lung for Carbon Monoxide (DLco),"lung function; Cohort 1: 200 mg QD, Cycle 31, Day 1",2.343 (20.988) Percent Predicted HGB Corrected DLco
same,Change From Baseline in Percent Predicted Hemoglobin (HGB) Corrected Diffusing Capacity of Lung for Carbon Monoxide (DLco),"lung function; Cohort 1: 200 mg QD, Cycle 32, Day 1",5.586 (—) Percent Predicted HGB Corrected DLco
same,Change From Baseline in Percent Predicted Hemoglobin (HGB) Corrected Diffusing Capacity of Lung for Carbon Monoxide (DLco),"lung function; Cohort 1: 200 mg QD, Cycle 33, Day 1",9.901 (9.954) Percent Predicted HGB Corrected DLco
same,Change From Baseline in Percent Predicted Hemoglobin (HGB) Corrected Diffusing Capacity of Lung for Carbon Monoxide (DLco),"lung function; Cohort 1: 200 mg QD, Cycle 34, Day 1",4.863 (—) Percent Predicted HGB Corrected DLco
same,Change From Baseline in Percent Predicted Hemoglobin (HGB) Corrected Diffusing Capacity of Lung for Carbon Monoxide (DLco),"lung function; Cohort 1: 200 mg QD, Cycle 35, Day 1",13.867 (1.309) Percent Predicted HGB Corrected DLco
same,Change From Baseline in Percent Predicted Hemoglobin (HGB) Corrected Diffusing Capacity of Lung for Carbon Monoxide (DLco),"lung function; Cohort 1: 200 mg QD, Cycle 36, Day 1",4.166 (—) Percent Predicted HGB Corrected DLco
same,Change From Baseline in Percent Predicted Hemoglobin (HGB) Corrected Diffusing Capacity of Lung for Carbon Monoxide (DLco),"lung function; Cohort 1: 200 mg QD, Cycle 37, Day 1",9.306 (—) Percent Predicted HGB Corrected DLco
same,Change From Baseline in Percent Predicted Hemoglobin (HGB) Corrected Diffusing Capacity of Lung for Carbon Monoxide (DLco),"lung function; Cohort 1: 200 mg QD, Cycle 39, Day 1",14.754 (0.649) Percent Predicted HGB Corrected DLco
same,Change From Baseline in Percent Predicted Hemoglobin (HGB) Corrected Diffusing Capacity of Lung for Carbon Monoxide (DLco),"lung function; Cohort 1: 200 mg QD, Cycle 40, Day 1",5.586 (—) Percent Predicted HGB Corrected DLco
same,Change From Baseline in Percent Predicted Hemoglobin (HGB) Corrected Diffusing Capacity of Lung for Carbon Monoxide (DLco),"lung function; Cohort 1: 200 mg QD, Cycle 41, Day 1",22.884 (—) Percent Predicted HGB Corrected DLco
same,Change From Baseline in Percent Predicted Hemoglobin (HGB) Corrected Diffusing Capacity of Lung for Carbon Monoxide (DLco),"lung function; Cohort 1: 200 mg QD, Cycle 43, Day 1",15.213 (—) Percent Predicted HGB Corrected DLco
same,Change From Baseline in Percent Predicted Hemoglobin (HGB) Corrected Diffusing Capacity of Lung for Carbon Monoxide (DLco),"lung function; Cohort 1: 200 mg QD, Cycle 49, Day 1",−3.599 (—) Percent Predicted HGB Corrected DLco
same,Change From Baseline in Percent Predicted Hemoglobin (HGB) Corrected Diffusing Capacity of Lung for Carbon Monoxide (DLco),"lung function; Cohort 1: 200 mg QD, Cycle 51, Day 1",11.734 (—) Percent Predicted HGB Corrected DLco
same,Change From Baseline in Percent Predicted Hemoglobin (HGB) Corrected Diffusing Capacity of Lung for Carbon Monoxide (DLco),"lung function; Cohort 1: 200 mg QD, Cycle 53, Day 1",10.292 (—) Percent Predicted HGB Corrected DLco
same,Change From Baseline in Percent Predicted Hemoglobin (HGB) Corrected Diffusing Capacity of Lung for Carbon Monoxide (DLco),"lung function; Cohort 1: 200 mg QD, Cycle 55, Day 1",16.550 (—) Percent Predicted HGB Corrected DLco
same,Change From Baseline in Percent Predicted Hemoglobin (HGB) Corrected Diffusing Capacity of Lung for Carbon Monoxide (DLco),"lung function; Cohort 1: 200 mg QD, Cycle 61, Day 1",17.682 (—) Percent Predicted HGB Corrected DLco
same,Change From Baseline in Percent Predicted Hemoglobin (HGB) Corrected Diffusing Capacity of Lung for Carbon Monoxide (DLco),"lung function; Cohort 1: 200 mg QD, Cycle 62, Day 1",4.170 (—) Percent Predicted HGB Corrected DLco
same,Change From Baseline in Percent Predicted Hemoglobin (HGB) Corrected Diffusing Capacity of Lung for Carbon Monoxide (DLco),"lung function; Cohort 1: 200 mg QD, Cycle 63, Day 1",26.215 (—) Percent Predicted HGB Corrected DLco
same,Change From Baseline in Percent Predicted Hemoglobin (HGB) Corrected Diffusing Capacity of Lung for Carbon Monoxide (DLco),"lung function; Cohort 1: 200 mg QD, Cycle 67, Day 1",41.384 (—) Percent Predicted HGB Corrected DLco
same,Change From Baseline in Percent Predicted Hemoglobin (HGB) Corrected Diffusing Capacity of Lung for Carbon Monoxide (DLco),"lung function; Cohort 1: 200 mg QD, EOT",−1.962 (11.426) Percent Predicted HGB Corrected DLco
same,Change From Baseline in Percent Predicted Hemoglobin (HGB) Corrected Diffusing Capacity of Lung for Carbon Monoxide (DLco),"lung function; Cohort 2: 200 mg BID, Cycle 3, Day 1",−0.638 (7.059) Percent Predicted HGB Corrected DLco
same,Change From Baseline in Percent Predicted Hemoglobin (HGB) Corrected Diffusing Capacity of Lung for Carbon Monoxide (DLco),"lung function; Cohort 2: 200 mg BID, Cycle 5, Day 1",−4.462 (23.621) Percent Predicted HGB Corrected DLco
same,Change From Baseline in Percent Predicted Hemoglobin (HGB) Corrected Diffusing Capacity of Lung for Carbon Monoxide (DLco),"lung function; Cohort 2: 200 mg BID, Cycle 7, Day 1",6.184 (9.436) Percent Predicted HGB Corrected DLco
same,Change From Baseline in Percent Predicted Hemoglobin (HGB) Corrected Diffusing Capacity of Lung for Carbon Monoxide (DLco),"lung function; Cohort 2: 200 mg BID, Cycle 8, Day 1",3.554 (—) Percent Predicted HGB Corrected DLco
same,Change From Baseline in Percent Predicted Hemoglobin (HGB) Corrected Diffusing Capacity of Lung for Carbon Monoxide (DLco),"lung function; Cohort 2: 200 mg BID, Cycle 9, Day 1",2.570 (8.902) Percent Predicted HGB Corrected DLco
same,Change From Baseline in Percent Predicted Hemoglobin (HGB) Corrected Diffusing Capacity of Lung for Carbon Monoxide (DLco),"lung function; Cohort 2: 200 mg BID, Cycle 10, Day 1",4.343 (3.144) Percent Predicted HGB Corrected DLco
same,Change From Baseline in Percent Predicted Hemoglobin (HGB) Corrected Diffusing Capacity of Lung for Carbon Monoxide (DLco),"lung function; Cohort 2: 200 mg BID, Cycle 11, Day 1",6.582 (10.695) Percent Predicted HGB Corrected DLco
same,Change From Baseline in Percent Predicted Hemoglobin (HGB) Corrected Diffusing Capacity of Lung for Carbon Monoxide (DLco),"lung function; Cohort 2: 200 mg BID, Cycle 12, Day 1",4.076 (—) Percent Predicted HGB Corrected DLco
same,Change From Baseline in Percent Predicted Hemoglobin (HGB) Corrected Diffusing Capacity of Lung for Carbon Monoxide (DLco),"lung function; Cohort 2: 200 mg BID, Cycle 13, Day 1",1.882 (7.522) Percent Predicted HGB Corrected DLco
